# In paper PMC10141620 (Viruses, 2023):
# Read-outs that look alike come from different tables or passages of the source.
# Key:
# [1] = system: NL4-3ΔEnv-NanoLuc/SARS-CoV-2 (USA-WA1/2020) pseudovirus; test: microbe, parasite or virus in culture; format: cell-based
# in vitro [2] = conditions: human
# in vitro [3] = conditions: human; remark: listed apart in the source
# [4] = system: NL4-3ΔEnv-NanoLuc/MERS-CoV pseudovirus; test: microbe, parasite or virus in culture; format: cell-based; conditions: Middle East respiratory syndrome-related coronavirus
# in vitro [5] = conditions: human; remark: listed apart in the source
# [6] = system: SARS-CoV-2 spike (Wuhan-Hu-1) mediated cell-to-cell fusion, Jurkat donor / 293T/ACE2 acceptor cells; test: microbe, parasite or virus in culture; format: cell-based; conditions: Severe acute respiratory syndrome coronavirus 2, 4 h; read-out: IC50, cell-to-cell fusion inhibition
# [7] = system: NL4-3ΔEnv-NanoLuc/SARS-CoV-1 pseudovirus; test: microbe, parasite or virus in culture; format: cell-based; conditions: Severe acute respiratory syndrome coronavirus
# [8] = system: NL4-3ΔEnvLuc/A-MLV pseudovirus; test: microbe, parasite or virus in culture; format: cell-based, amphotropic murine leukemia virus (A-MLV); conditions: 293T/ACE2, read-out: A-MLV IC50
# in vitro [9] = conditions: human; remark: listed apart in the source
# in vitro [10] = conditions: human; remark: listed apart in the source
# [11] = Caco-2, read-out: MERS-CoV IC50
# [12] = Calu-3, read-out: MERS-CoV IC50
# [13] = Calu-3, read-out: SARS-CoV-2 USA-WA1/2020 IC50
# [14] = 293T/ACE2, read-out: SARS-CoV-1 IC50
# [15] = A549-ACE2, read-out: SARS-CoV-1 IC50
# [16] = Calu-3, read-out: SARS-CoV-1 IC50
Compound,"IC50 ([1]; Pseudovirus, 293T/ACE2) [µM]","IC50 ([1]; Pseudovirus, A549-ACE2) [µM]",CC50 (in vitro [2]) [µM],CC50 (in vitro [3]) [µM],also measured
Cc1cc2nc3s/c(=C\c4ccc(-c5ccc6c(c5)COC6=O)o4)c(=O)n3c2cc1C [NBCoV65],> 10,> 10,> 50,> 50,–
O=c1/c(=C\c2ccc(-c3cccc(Cl)c3)o2)sc2nc3ccccc3n12 [NBCoV71],> 10,> 10,–,–,–
Cc1ccc(-c2ccc(/C=c3/sc4nc5ccccc5n4c3=O)o2)cc1Cl [NBCoV79],> 10,> 10,> 50,> 50,–
COc1cc(/C=c2/sc3nc4ccccc4n3c2=O)cc(I)c1OCC(=O)O [NBCoV72],> 10,> 10,> 50,> 50,–
Cc1cc(C)c2nc3s/c(=C\c4ccc(-c5ccc(Cl)c(C(=O)O)c5)o4)c(=O)n3c2c1 [NBCoV37],0.066 ± 0.002,0.145 ± 0.012,42.5 ± 2,~50,"IC50 [4, 11]: 0.161 ± 0.053 µM; IC50 [4, 12]: 0.877 ± 0.05 µM; IC50 ([4]; MRC5, read-out: MERS-CoV IC50): 0.229 ± 0.02 µM; IC50 ([4]; read-out: MERS-CoV IC50, range over both cell lines): 0.161 to 0.229 µM; IC50 [1, 13]: 0.368 ± 0.045 µM; IC50 ([1]; Pseudovirus, 293T/ACE2, read-out: IC50, range over both cell lines): 0.066 to 0.198 µM; CC50 (in vitro [5]): > 50 µM; IC50 [6]: 1.4 µM; IC50 [7, 14]: 0.34 ± 0.034 µM; IC50 [7, 15]: 0.095 ± 0.001 µM; IC50 [7, 16]: 1 ± 0.132 µM; IC50 [8]: 1.51 ± 0.088 µM; CC50 (in vitro [9]): 48 ± 2 µM; CC50 (in vitro [10]): > 50 µM"
Cc1ccc2c(nc3s/c(=C/c4ccc(-c5ccc(C(=O)O)cc5)o4)c(=O)n32)c1C [NBCoV69],2.55 ± 0.105,3 ± 0.4,> 50,> 50,–
O=C(O)c1cc(C(=O)O)cc(-c2ccc(/C=c3/sc4nc5ccccc5n4c3=O)o2)c1 [NBCoV76],> 10,> 10,> 50,> 50,–
Cc1cc2nc3s/c(=C/c4ccc(-c5ccc(Cl)cc5)o4)c(=O)n3c2cc1C [NBCoV78],> 10,8.1 ± 0.2,> 50,> 50,–
O=C(O)c1ccc(Cl)c(-c2ccc(/C=c3/sc4nc5ccccc5n4c3=O)o2)c1 [NBCoV74],> 10,> 10,> 50,> 50,–
O=C(O)c1cc(-c2ccc(/C=c3\sc4nc(=O)c5c6c(sc5n4c3=O)CCCC6)o2)ccc1Cl [NBCoV36],0.33 ± 0.018,0.227 ± 0.018,43 ± 0.9,> 50,"IC50 [4, 11]: 0.428 ± 0.034 µM; IC50 [4, 12]: 0.589 ± 0.117 µM; IC50 ([4]; MRC5, read-out: MERS-CoV IC50): 0.837 ± 0.038 µM; IC50 [1, 13]: 0.433 ± 0.049 µM; CC50 (in vitro [5]): > 50 µM; IC50 [6]: 0.9 µM; IC50 [7, 14]: 0.66 ± 0.03 µM; IC50 [7, 15]: 0.147 ± 0.019 µM; IC50 [7, 16]: 0.627 ± 0.058 µM; IC50 [8]: 3.3 ± 0.1 µM; CC50 (in vitro [9]): > 50 µM; CC50 (in vitro [10]): > 50 µM"
Cc1cc(C(=O)O)ccc1-c1ccc(/C=c2\sc3nc4ccccc4n3c2=O)o1 [NBCoV70],9.5 ± 1,> 10,> 50,> 50,–
